Source: patent US10632137B2, “Composition containing ivermectin for exterminating Clavinema mariae infection on Sebastes schlegeli” (REPUBLIC OF KOREA (National Institute of Fisheries Science), priority 2017, dated 2020)
“Also recorded” adds a separate entry of the source.

Columns and labels:
[1] = system: Clavinema mariae; test: In vivo killing (antiparasitic) effect in Sebastes schlegeli naturally infected with Clavinema mariae
Method: 500 Sebastes schlegeli (116±17 g, 20±9 cm) on the west coast region of Korea were purchased and were allowed to habituate at a water temperature of 18.5 to 21° C. in a sea water tank for one week. Since the Sebastes schlegeli infected with Clavinema mariae is able to be confirmed by visual inspection, the Sebastes schlegeli was anesthetized with MS-222, and only the Sebastes schlegeli infected with Clavinema mariae was screened by visual inspection and used for clinical examination.

[2] = system: Sebastes schlegeli; test: Mortality (death of fish) of treated Sebastes schlegeli
Description: For the oral administration, a predetermined amount of each candidate material was mixed with blended powder feed to prepare a feed pellet, the Sebastes schlegeli was anesthetized, and the feed pellet was inserted up to the stomach with tweezers (FIG. 2). […] After 2 weeks, all experimental fishes were anesthetized with MS-222, and Clavinema mariae was extracted with tweezers to confirm the death. The control group was anesthetized, and then only feed pill to which the drug is not added was orally administered thereto.
For this purpose, 10 Sebastes schlegeli infected with Clavinema mariae were divided for each experimental group, and when two weeks passed after the Ivermectin was administered a total of 1 to 4 times daily or every 2 to 4 days while changing an oral administration concentration from 1 to 18 ppm, the antiparasitic effect and the mortality of the Clavinema mariae were observed.

[3] = system: Clavinema mariae; test: organism not typed; conditions: for Antiparasitic effect of Clavinema mariae in vitro compared with the recommended concentration: in vitro killing concentration versus recommended concentration of Table 3; for Killing Concentration (ppm): in vitro, Clavinema mariae in PBS, 1 hour; for Viability of Clavinema mariae (Dead %/Survived): after 1 hour
Description: Candidate materials of a medicine for exterminating Clavinema mariae infection on Sebastes schlegeli were screened by examining various documents (Table 1). […] From the Sebastes schlegeli naturally infected with Clavinema mariae, the Clavinema mariae was carefully removed with tweezers, preserved in PBS, and directly exposed to nine candidate materials at various concentrations to evaluate the antiparasitic effect. […] However, after being killed, the movement disappears, and thus whether it is dead or not is able to be easily determined by observing whether it moves or not. Among the nine candidate materials, Febendazole, Pyrantel, Levamisole, Piperazine, Ivermectin, Trichlorfon, and Praziqantel were purchased from Sigma Aldrich (USA), and hydrogen peroxide and formalin solution were purchased from Junsei (Japan). Among the candidate materials, a poorly soluble compound, Febendazole, was dissolved in 100% ethanol and diluted with PBS to be used. Piperazine and Ivermectin were dissolved in dimethylsulfoxide (DMSO) and diluted with PBS to be used.
Clavinema mariae was extracted from Sebastes schlegeli (average weight: 150 g) cultivated on the west coast of Cheonsu Bay area (FIG. 1), 2 ml of each candidate material diluted with PBS to have each concentration was dispensed into a 6-well plate. Ten (10) living Clavinema mariae were placed in each well, and viability thereof was confirmed after 1 hour (FIG. 2).

[4] = humans, after oral administration; cited from earlier work
[5] = system: Sebastes schlegeli; test: Histological analysis (H&E) of internal organs after Ivermectin oral administration; type: in vivo; conditions: for hepatocyte (liver histology): oral, 4 times, one week after last administration
Method: Ivermectin was orally administered to Sebastes schlegeli according to dosing concentrations, dosing times, and dosing intervals described in Table 6, and after one week from the last oral administration, histological analysis of internal organs was performed. The histological analysis was performed by fixing the liver, kidney, spleen and gill of the experimental fish with 10% neutral formalin, followed by dehydration and paraffin embedding, and the cut tissues were stained with hematoxylin-eosin (H & E) and examined. As a result of histopathological examination, the spleen, kidney, and gill except the liver were normal in all tissues as compared with the control group. […] Therefore, it was confirmed that administration of 1 ppm of Ivermectin 4 times daily or every 2 to 3 days or administration of 2 ppm of Ivermectin every 2 to 3 days was the most preferable administration method in view of stability.

[6] = at the concentrations shown in Table 4, once, after 2 weeks
[7] = medicated bath, 50 ppm, 10 minutes, 1 bath, after 2 weeks
[8] = medicated bath, 50 ppm, 10 minutes, 1 bath, observed for 2 weeks
[9] = 1 h, read-out: Viability of Clavinema mariae (Dead %/Survived)
[10] = oral, 5 ppm, 1 administration, after 2 weeks

Molecule: C=O [Formaline, Formalin]
- Antiparasitic effect against Clavinema mariae on Sebastes schlegeli [1, 6]: could not be confirmed to have the antiparasitic effect
- Killing Effect (%) [1, 7]: 0%
- Killing Effect (%) ([1]; medicated bath, 200 ppm, 10 minutes, 1 bath, after 2 weeks): 0%
- Death of fish (%) [2, 8]: 0%
- Death of fish (%) ([2]; medicated bath, 200 ppm, 10 minutes, 1 bath, observed for 2 weeks): 0%
- mortality at 25 ppm [3, 9]: 100%
- mortality at 50 ppm [3, 9]: 100%
- mortality at 70 ppm [3, 9]: 100%
- mortality at 350 ppm [3, 9]: 100%
- Antiparasitic effect of Clavinema mariae in vitro compared with the recommended concentration [3]: at a lower concentration than the recommended concentration
- Killing Concentration (ppm) [3]: 25 ppm

Molecule: OO [Hydrogen peroxide]
- Antiparasitic effect against Clavinema mariae on Sebastes schlegeli [1, 6]: could not be confirmed to have the antiparasitic effect
- Killing Effect (%) ([1]; medicated bath, 10 ppm, 10 minutes, 1 bath, after 2 weeks): 0%
- Killing Effect (%) [1, 7]: 0%
- Death of fish (%) ([2]; medicated bath, 10 ppm, 10 minutes, 1 bath, observed for 2 weeks): 0%
- Death of fish (%) [2, 8]: 0%
- mortality at 5 ppm [3, 9]: 100%
- mortality at 10 ppm [3, 9]: 100%
- mortality at 14 ppm [3, 9]: 100%
- mortality at 280 ppm [3, 9]: 100%
- Antiparasitic effect of Clavinema mariae in vitro compared with the recommended concentration [3]: at a lower concentration than the recommended concentration
- Killing Concentration (ppm) [3]: <5 ppm

Molecule: CC[C@H](C)[C@H]1O[C@]2(C=C[C@@H]1C)C[C@@H]1C[C@@H](C/C=C(\C)[C@@H](O[C@H]3C[C@H](OC)[C@@H](O[C@H]4C[C@H](OC)[C@@H](O)[C@H](C)O4)[C@H](C)O3)[C@@H](C)/C=C/C=C3\CO[C@@H]4[C@H](O)C(C)=C[C@@H](C(=O)O1)[C@]34O)O2 [avermectin]
- Time to maximum plasma concentration [4]: 4 h
- half-life [4]: about 16 hours

Molecule: c1ccc([C@H]2CN3CCSC3=N2)cc1 [Levamisole]
- Killing Effect (%) ([1]; oral, 2.5 ppm, 1 administration, after 2 weeks): 0%
- Killing Effect (%) [1, 10]: 0%
- mortality at 0.5 ppm [3, 9]: 20%
- mortality at 1 ppm [3, 9]: 100%
- mortality at 1.7 ppm [3, 9]: 100%
- Antiparasitic effect of Clavinema mariae in vitro compared with the recommended concentration [3]: at a lower concentration than the recommended concentration

Molecule: COC(=O)Nc1nc2ccc(Sc3ccccc3)cc2[nH]1 [Fenbendazole]
- Killing Effect (%) [1, 10]: 0%
- Killing Effect (%) ([1]; oral, 15 ppm, 1 administration, after 2 weeks): 0%
- Death of fish (%) ([2]; oral, 5 ppm, 1 administration, observed for 2 weeks): 0%
- Death of fish (%) ([2]; oral, 15 ppm, 1 administration, observed for 2 weeks): 0%
- Viability of Clavinema mariae (Dead %/Survived) ([3]; 1.7 ppm in PBS): Survived
- Viability of Clavinema mariae (Dead %/Survived) ([3]; 5 ppm in PBS): Survived
- mortality at 15 ppm [3, 9]: 100%
- mortality at 30 ppm [3, 9]: 100%
- Killing Concentration (ppm) [3]: 5-15 ppm

Molecule: Ivermectin
- Time until the spot where the pus is formed disappeared and was completely cured ([1]; oral, 1 ppm once): ≤ 6 weeks
- Antiparasitic effect against Clavinema mariae on Sebastes schlegeli ([1]; oral, 1 ppm once, after two weeks): some individuals had pus in a spot infected with the Clavinema mariae, and showed the antiparasitic effect
- Killing Effect (%) ([1]; oral, 1 ppm, 1 administration, after 2 weeks): 20%
- Killing Effect (%) ([1]; oral, 1 ppm, 4 times, everyday, after two weeks): 100%
- Killing Effect (%) ([1]; oral, 1 ppm, 4 times, intervals 2-3 days, after two weeks): 100%
- Nematode antiparasitic effect ([1]; oral, 1 to 2 ppm, 4 times): 100%
- State of the infection area after 6 weeks ([1]; oral, 1 to 2 ppm, 4 times, after 6 weeks): the infection area was cleanly treated
- Killing Effect (%) ([1]; oral, 2 ppm, 4 times, everyday, after two weeks): 100%
- Killing Effect (%) ([1]; oral, 2 ppm, 4 times, intervals 2-3 days, after two weeks): 100%
- Killing Effect (%) ([1]; oral, 3 ppm, 2 times, everyday, after two weeks): 100%
- Killing Effect (%) ([1]; oral, 3 ppm, 2 times, interval 3 days, after two weeks): 100%
- Killing Effect (%) ([1]; oral, 4 ppm, 2 times, everyday, after two weeks): 100%
- Killing Effect (%) ([1]; oral, 5 ppm, 2 times, everyday, after two weeks): 100%
- Killing Effect (%) ([1]; oral, 6 ppm, 2 times, interval 4 days, after two weeks): 100%
- Death of fish (%) ([2]; oral, 1 ppm, 1 administration, observed for 2 weeks): 0%
- Death of fish (%) ([2]; oral, 1 ppm, 4 times, everyday): 0%
- Death of fish (%) ([2]; oral, 1 ppm, 4 times, intervals 2-3 days): 0%
- Behaviour and death of Sebastes schlegeli ([2]; oral, 2 ppm, 4 times): some Sebastes schlegeli were sitting on the bottom and died
- Death of fish (%) ([2]; oral, 2 ppm, 4 times, everyday): 20%
- Death of fish (%) ([2]; oral, 2 ppm, 4 times, intervals 2-3 days): 0%
- Death of Sebastes schlegeli ([2]; oral, 3 ppm or more): death occurred after being administered 2 times
- Death of fish (%) ([2]; oral, 3 ppm, 2 times, everyday): 60%
- Death of fish (%) ([2]; oral, 3 ppm, 2 times, interval 3 days): 20%
- Death of fish (%) ([2]; oral, 4 ppm, 2 times, everyday): 60%
- Death of fish (%) ([2]; oral, 5 ppm, 2 times, everyday): 30%
- Death of fish (%) ([2]; oral, 6 ppm, 2 times, interval 4 days): 70%
- Death of fish (%) ([2]; oral, 18 ppm, 1 time): 100%
- Histopathological examination of spleen, kidney and gill ([5]; all regimens of Table 6, compared with the control group): normal
- hepatocyte (liver histology) ([5]; 1 ppm, 2-3 days): Abnormality of the liver tissue was not confirmed; also recorded: Normal
- hepatocyte (liver histology) ([5]; 1 ppm, everyday): Abnormality of the liver tissue was not confirmed; also recorded: Normal
- hepatocyte (liver histology) ([5]; 2 ppm, 2-3 days): Abnormality of the liver tissue was not confirmed; also recorded: Normal
- hepatocyte (liver histology) ([5]; 2 ppm, everyday): hepatocyte metamorphosis, vacuolar formation
- Viability of Clavinema mariae (Dead %/Survived) ([3]; 0.001 ppm in PBS): Survived
- Viability of Clavinema mariae (Dead %/Survived) ([3]; 0.01 ppm in PBS): Dead (100%)
- Viability of Clavinema mariae (Dead %/Survived) ([3]; 0.05 ppm in PBS): Dead (100%)
- Viability of Clavinema mariae (Dead %/Survived) ([3]; 0.5 ppm in PBS): Dead (100%)
- Antiparasitic effect of Clavinema mariae in vitro compared with the recommended concentration [3]: at a lower concentration than the recommended concentration
- Killing Concentration (ppm) [3]: 0.001-0.01 ppm

Molecule: O=C(C1CCCCC1)N1CC(=O)N2CCc3ccccc3C2C1 (stereo not shown) [Praziquantel]
- mortality at 800 ppm [3, 9]: 100%
- mortality at 1600 ppm [3, 9]: 100%
- Antiparasitic effect of Clavinema mariae in vitro compared with the recommended concentration [3]: did not show the antiparasitic effect of Clavinema mariae at a concentration 2000 times higher than the recommended concentration
- Killing Concentration (ppm) [3]: 400-800 ppm

Molecule: COP(=O)(OC)C(O)C(Cl)(Cl)Cl (stereo not shown) [Trichlorfon]
- Viability of Clavinema mariae (Dead %/Survived) ([3]; 2.5 ppm in PBS): Survived
- Viability of Clavinema mariae (Dead %/Survived) ([3]; 25 ppm in PBS): Survived
- mortality at 50 ppm [3, 9]: 100%
- mortality at 75 ppm [3, 9]: 100%
- Antiparasitic effect of Clavinema mariae in vitro compared with the recommended concentration [3]: showed the antiparasitic effect at a very high concentration
- Killing Concentration (ppm) [3]: 25-50 ppm

Molecule: CN1CCCN=C1/C=C/c1cccs1 [Pyrantel]
- Killing Effect (%) ([1]; oral, 2.7 ppm, 1 administration, after 2 weeks): 0%
- Death of fish (%) ([2]; oral, 2.7 ppm, 1 administration, observed for 2 weeks): 0%
- mortality at 0.06 ppm [3, 9]: 20%
- mortality at 0.09 ppm [3, 9]: 100%
- mortality at 0.9 ppm [3, 9]: 100%
- Antiparasitic effect of Clavinema mariae in vitro compared with the recommended concentration [3]: at a lower concentration than the recommended concentration
- Killing Concentration (ppm) [3]: 0.02-0.06 ppm

Molecule: C1CNCCN1 [Piperazine]
- Killing Effect (%) ([1]; oral, 100 ppm, 1 administration, after 2 weeks): 0%
- Killing Effect (%) ([1]; oral, 300 ppm, 1 administration, after 2 weeks): 0%
- Death of fish (%) ([2]; oral, 100 ppm, 1 administration, observed for 2 weeks): 0%
- Death of fish (%) ([2]; oral, 300 ppm, 1 administration, observed for 2 weeks): 30%
- mortality at 50 ppm [3, 9]: 100%
- mortality at 75 ppm [3, 9]: 100%
- mortality at 100 ppm [3, 9]: 100%
- Antiparasitic effect of Clavinema mariae in vitro compared with the recommended concentration [3]: at a lower concentration than the recommended concentration
- Killing Concentration (ppm) [3]: 33-50 ppm
